This is an account of results in US11337976B2 (Plexxikon Inc., priority 2011, dated 2022).

Bounds are passed on as bounds.

The test system of this assay is A375 melanoma cells (B-Raf V600E mutation). The assay is described as follows: A375 (A375_P-ERK) cell activity / cell growth inhibition assay. The assay is classed as cell-based, human. The following applies: Homo sapiens, A-375; A375 cells (text: A375_P-ERK). The method, then:
Compounds are assessed in a variety of cell based assays. For example human cell lines with B-RafV600E mutation (A375 melanoma, SKMEL3 melanoma, and COLO205 colon adenocarcinoma), as well as tumorigenic cell lines with wild-type B-RAF (SW620 colon adenocarcinoma) or with Ras mutations (SKMEL2 melanoma and IPC298 melanoma).
On day 1, cells are counted, then centrifuged in a conical tube for 5 minutes at 1000 rpm.
On day 2, compound at a maximum concentration of 5 mM is serially diluted 1:3 (e.g. 10 μL with 30 μL dimethyl sulfoxide) for a total of 8 point titration with DMSO as a control. A 1 μL aliquot of each dilution point and control is added to 249 μL growth media and 50 μL is added to a well containing cells, providing 10 μM compound at the maximum concentration point. The cells are incubated for 3 days at 37° C. in 5% CO2.
ATPlite is added 25 μL to each well, shake for 2 minutes, and the cells are incubated at room temperature for 10 minutes, then luminescence is read on Safire reader. The measured luminescence correlates directly with cell number, such that the reading as a function of compound concentration is used to determine the IC50 value.

For the compound `CCN(C)S(=O)(=O)Nc1ccc(F)c(C(=O)c2c[nH]c3ncc(Cl)cc23)c1F` [P-0012, 5-chloro-3-[3-[[ethyl(methyl)sulfamoyl]amino]-2,6-difluoro-benzoyl]-1H-pyrrolo[2,3-b]pyridine], the IC50 (as a rule, the concentration needed to halve the response being measured) was < 1 µM. With `CCN(C)S(=O)(=O)Nc1ccc(F)c(C(=O)c2c[nH]c3ncc(-c4cnc(OC)nc4)cc23)c1F` [P-0014], the IC50 was < 1 µM. For `O=C(c1c(F)ccc(NS(=O)(=O)N2CCCC2)c1F)c1c[nH]c2ncc(F)c(NCC3CC3)c12` [P-0016, N-[3-[4-(cyclopropylmethylamino)-5-fluoro-1H-pyrrolo[2,3-b]pyridine-3-carbonyl]-2,4-difluoro-phenyl]pyrrolidine-1-sulfonamide], the IC50 was < 1 µM. With `CCN(C)S(=O)(=O)Nc1ccc(F)c(C(=O)c2c[nH]c3ncc(C#N)cc23)c1F` [P-0017, 5-cyano-3-[3-[[ethyl(methyl)sulfamoyl]amino]-2,6-difluoro-benzoyl]-1H-pyrrolo[2,3-b]pyridine] the figure was < 1 µM; with `CCN(C)S(=O)(=O)Nc1cccc(C(=O)c2c[nH]c3ncc(Cl)cc23)c1F` [P-0018, 5-chloro-3-[3-[[ethyl(methyl)sulfamoyl]amino]-2-fluoro-benzoyl]-1H-pyrrolo[2,3-b]pyridine], < 1 µM. As to `CCN(C)S(=O)(=O)Nc1cccc(C(=O)c2c[nH]c3ncc(-c4ccc(Cl)cc4)cc23)c1F` [P-0019], the half-inhibitory concentration (IC50) is < 1 µM. As for `CCN(C)S(=O)(=O)Nc1cccc(C(=O)c2c[nH]c3ncc(-c4cnc(OC)nc4)cc23)c1F` [P-0020], the 50% inhibitory concentration (IC50) is < 1 µM. For `Cc1cnc2[nH]cc(C(=O)c3cccc(NS(=O)(=O)N4CCCC4)c3F)c2c1` [P-0023, N-[2-fluoro-3-(5-methyl-1H-pyrrolo[2,3-b]pyridine-3-carbonyl)phenyl]pyrrolidine-1-sulfonamide], the concentration for half-maximal inhibition (IC50) was < 1 µM. Regarding `COc1ncc(-c2cnc3[nH]cc(C(=O)c4cccc(NS(=O)(=O)N(C)C5CC5)c4F)c3c2)cn1` [P-0025], the IC50 is < 1 µM. As to `CNS(=O)(=O)Nc1cccc(C(=O)c2c[nH]c3ncc(-c4cnc(OC)nc4)cc23)c1F` [P-0026], the concentration for half-maximal inhibition (IC50) was > 1 µM. With `CCN(C)S(=O)(=O)Nc1cccc(C(=O)c2c[nH]c3ncc(-c4ccc(C)nc4)cc23)c1F` [P-0033], the concentration for half-maximal inhibition (IC50) was < 1 µM.

In the case of `CCN(C)S(=O)(=O)Nc1cccc(C(=O)c2c[nH]c3ncc(-c4ccc(F)cc4)cc23)c1F` [P-0034], the IC50 is < 1 µM. Take `CN(C)S(=O)(=O)Nc1cccc(C(=O)c2c[nH]c3ncc(-c4ccc(F)cc4)cc23)c1F` [P-0035]: the IC50 was < 1 µM. For `CCN(C)S(=O)(=O)Nc1cccc(C(=O)c2c[nH]c3ncc(Br)cc23)c1F` [P-0038, 5-bromo-3-[3-[[ethyl(methyl)sulfamoyl]amino]-2-fluoro-benzoyl]-1H-pyrrolo[2,3-b]pyridine], the 50% inhibitory concentration (IC50) is < 1 µM. With `CCN(C)S(=O)(=O)Nc1cccc(C(=O)c2c[nH]c3ncc(C#N)cc23)c1F` [P-0039, 5-cyano-3-[3-[[ethyl(methyl)sulfamoyl]amino]-2-fluoro-benzoyl]-1H-pyrrolo[2,3-b]pyridine] the figure was < 1 µM; with `CCCN(C)S(=O)(=O)Nc1cccc(C(=O)c2c[nH]c3ncc(-c4cnc(OC)nc4)cc23)c1F` [P-0040, 3-[2-fluoro-3-[[methyl(propyl)sulfamoyl]amino]benzoyl]-5-(2-methoxypyrimidin-5-yl)-1H-pyrrolo[2,3-b]pyridine], < 1 µM.

Consider `Cn1cc(-c2cnc3[nH]cc(C(=O)c4cccc(NS(=O)(=O)CC5CC5)c4F)c3c2)cn1` [P-0042, 1-cyclopropyl-N-[2-fluoro-3-[5-(1-methylpyrazol-4-yl)-1H-pyrrolo[2,3-b]pyridine-3-carbonyl]phenyl]methanesulfonamide], for which the IC50 is < 1 µM. Turning to `O=C(c1cccc(NS(=O)(=O)N2CCCC2)c1F)c1c[nH]c2ncc(-c3cccnc3)cc12` [P-0043, N-[2-fluoro-3-[5-(3-pyridyl)-1H-pyrrolo[2,3-b]pyridine-3-carbonyl]phenyl]pyrrolidine-1-sulfonamide], the concentration for half-maximal inhibition (IC50) is < 1 µM.
